The supplement of paper PMC13380429

Key:
Caco-2 [1] = test: drug sensitivity score (DSS) for viability; higher = more toxic; extreme values may be limits of the assay; conditions: 72 h
Vero E6 [2] = test: as above; conditions: 72 h
HepG2 [3] = test: as above; conditions: 72 h
U2OS [4] = test: as above; conditions: 72 h
Calu-3 [5] = test: as above; conditions: 72 h
HepG2 [6] = test: relative viability EC50 (midpoint between 100% and the lowest measured viability); higher = less toxic; conditions: 72 h
Calu-3 [7] = test: as above; conditions: 72 h
[8] = tested on: A549-ACE2 infected with SARS-CoV-2; test: morphology score (similarity to uninfected cells); higher = more like uninfected cells; conditions: 24 h
A549-ACE2 = test: drug-induced phospholipidosis relative to tamoxifen; higher = more phospholipidosis
Caco-2 [9] = test: cell viability relative to DMSO; higher = less toxic; conditions: 72 h
Vero E6 [10] = test: as above; conditions: 72 h
HepG2 [11] = test: as above; conditions: 72 h
U2OS [12] = test: as above; conditions: 72 h
Calu-3 [13] = test: as above; conditions: 72 h
[14] = tested on: A549-ACE2 infected with SARS-CoV-2; test: SARS-CoV-2 infection rate relative to DMSO; higher = more infection; conditions: 24 h
[15] = tested on: A549-ACE2 infected with SARS-CoV-2; test: cell count relative to DMSO; higher = less toxic; conditions: 24 h
Caco-2 [16] = test: relative viability EC50 (midpoint between 100% and the lowest measured viability); higher = less toxic; conditions: 72 h
Vero E6 [17] = test: as above; conditions: 72 h
U2OS [18] = test: as above; conditions: 72 h

SMILES: COc1cc(N2CCN(C)CC2)ccc1Nc1nccc(-c2cn(C)c3cnccc23)n1 [AZ191]
- drug sensitivity score (Caco-2 [1]): 1.9
- drug sensitivity score (Vero E6 [2]): 2.6
- drug sensitivity score (HepG2 [3]): 6.4
- drug sensitivity score (U2OS [4]): 1.5
- drug sensitivity score (Calu-3 [5]): 0
- relative viability EC50 (HepG2 [6]): 1.9 µM
- relative viability EC50 (Calu-3 [7]): > 10 µM
- morphology score ([8]; 0.1 µM): 0.14
- morphology score ([8]; 0.3 µM): 0.19
- morphology score ([8]; 1 µM): 0.38
- morphology score ([8]; 3 µM): 0.74
- drug-induced phospholipidosis (A549-ACE2; 0.3 µM, 24 h): 1.95%
- drug-induced phospholipidosis (A549-ACE2; 0.3 µM, 48 h): -0.41%
- drug-induced phospholipidosis (A549-ACE2; 0.3 µM, 72 h): 3.05%
- drug-induced phospholipidosis (A549-ACE2; 0.833333 µM, 24 h): -3.91%
- drug-induced phospholipidosis (A549-ACE2; 0.833333 µM, 48 h): -2.25%
- drug-induced phospholipidosis (A549-ACE2; 0.833333 µM, 72 h): -1.34%
- drug-induced phospholipidosis (A549-ACE2; 3.33333 µM, 24 h): 0.16%
- drug-induced phospholipidosis (A549-ACE2; 3.33333 µM, 48 h): -2.09%
- drug-induced phospholipidosis (A549-ACE2; 3.33333 µM, 72 h): -1.23%
- drug-induced phospholipidosis (A549-ACE2; 6.66667 µM, 24 h): 32.4%
- drug-induced phospholipidosis (A549-ACE2; 6.66667 µM, 48 h): 41.3%
- drug-induced phospholipidosis (A549-ACE2; 10 µM, 24 h): 35.2%
- cell viability (Caco-2 [9]; 1 nM): 96.7%
- cell viability (Caco-2 [9]; 10 nM): 94.4%
- cell viability (Caco-2 [9]; 100 nM): 96.6%
- cell viability (Caco-2 [9]; 1000 nM): 98.5%
- cell viability (Caco-2 [9]; 10000 nM): 64.4%
- cell viability (Vero E6 [10]; 1 nM): 93.6%
- cell viability (Vero E6 [10]; 10 nM): 101%
- cell viability (Vero E6 [10]; 100 nM): 98.5%
- cell viability (Vero E6 [10]; 1000 nM): 95%
- cell viability (Vero E6 [10]; 10000 nM): 62.6%
- cell viability (HepG2 [11]; 1 nM): 97.3%
- cell viability (HepG2 [11]; 10 nM): 93.8%
- cell viability (HepG2 [11]; 100 nM): 98.4%
- cell viability (HepG2 [11]; 1000 nM): 87.1%
- cell viability (HepG2 [11]; 10000 nM): 22.3%
- cell viability (U2OS [12]; 1 nM): 97.9%
- cell viability (U2OS [12]; 10 nM): 104%
- cell viability (U2OS [12]; 100 nM): 99.6%
- cell viability (U2OS [12]; 1000 nM): 103%
- cell viability (U2OS [12]; 10000 nM): 64.5%
- cell viability (Calu-3 [13]; 1 nM): 96.4%
- cell viability (Calu-3 [13]; 10 nM): 93.6%
- cell viability (Calu-3 [13]; 100 nM): 93.3%
- cell viability (Calu-3 [13]; 1000 nM): 101%
- cell viability (Calu-3 [13]; 10000 nM): 102%
- SARS-CoV-2 infection rate ([14]; 0.1 µM): 95%
- SARS-CoV-2 infection rate ([14]; 0.3 µM): 103%
- SARS-CoV-2 infection rate ([14]; 1 µM): 95%
- SARS-CoV-2 infection rate ([14]; 3 µM): 53%
- cell count ([15]; 0.1 µM): 106%
- cell count ([15]; 0.3 µM): 102%
- cell count ([15]; 1 µM): 116%
- cell count ([15]; 3 µM): 120%

SMILES: Cn1nc(C(C)(C)C)cc1C(=O)N[C@@H](Cc1cccc(Cl)c1)C(=O)NCC#N [Cathepsin Inhibitor 1]
- morphology score ([8]; 0.3 µM): 0.72
- morphology score ([8]; 3 µM): 0.85
- morphology score ([8]; 10 µM): 0.91
- morphology score ([8]; 30 µM): 0.91
- drug-induced phospholipidosis (A549-ACE2; 0.3 µM, 24 h): 6.59%
- drug-induced phospholipidosis (A549-ACE2; 0.3 µM, 48 h): 3.88%
- drug-induced phospholipidosis (A549-ACE2; 0.3 µM, 72 h): 7.75%
- drug-induced phospholipidosis (A549-ACE2; 0.833333 µM, 24 h): 1.92%
- drug-induced phospholipidosis (A549-ACE2; 0.833333 µM, 48 h): 2.55%
- drug-induced phospholipidosis (A549-ACE2; 0.833333 µM, 72 h): 3.09%
- drug-induced phospholipidosis (A549-ACE2; 3.33333 µM, 24 h): 9.11%
- drug-induced phospholipidosis (A549-ACE2; 3.33333 µM, 48 h): 8.4%
- drug-induced phospholipidosis (A549-ACE2; 3.33333 µM, 72 h): 6.53%
- drug-induced phospholipidosis (A549-ACE2; 6.66667 µM, 24 h): 12.3%
- drug-induced phospholipidosis (A549-ACE2; 6.66667 µM, 48 h): 13.7%
- drug-induced phospholipidosis (A549-ACE2; 6.66667 µM, 72 h): 12.2%
- drug-induced phospholipidosis (A549-ACE2; 10 µM, 24 h): 12.3%
- drug-induced phospholipidosis (A549-ACE2; 10 µM, 48 h): 15.4%
- drug-induced phospholipidosis (A549-ACE2; 10 µM, 72 h): 10.8%
- drug-induced phospholipidosis (A549-ACE2; 30 µM, 24 h): 38.3%
- drug-induced phospholipidosis (A549-ACE2; 30 µM, 48 h): 38.9%
- drug-induced phospholipidosis (A549-ACE2; 30 µM, 72 h): 42%
- SARS-CoV-2 infection rate ([14]; 0.3 µM): 56%
- SARS-CoV-2 infection rate ([14]; 3 µM): 33%
- SARS-CoV-2 infection rate ([14]; 10 µM): 20%
- SARS-CoV-2 infection rate ([14]; 30 µM): 17%
- cell count ([15]; 0.3 µM): 117%
- cell count ([15]; 3 µM): 125%
- cell count ([15]; 10 µM): 121%
- cell count ([15]; 30 µM): 121%

SMILES: CCCCCCCCCCCCCCCCCCOP(=O)([O-])OC1CC[N+](C)(C)CC1 [perifosine]
- drug sensitivity score (Caco-2 [1]): 0
- drug sensitivity score (Vero E6 [2]): 0
- drug sensitivity score (HepG2 [3]): 0
- drug sensitivity score (U2OS [4]): 0
- drug sensitivity score (Calu-3 [5]): 0.8
- relative viability EC50 (Caco-2 [16]): > 10 µM
- relative viability EC50 (Vero E6 [17]): > 10 µM
- relative viability EC50 (HepG2 [6]): > 10 µM
- relative viability EC50 (U2OS [18]): > 10 µM
- relative viability EC50 (Calu-3 [7]): > 10 µM
- cell viability (Caco-2 [9]; 1 nM): 96.4%
- cell viability (Caco-2 [9]; 10 nM): 90.9%
- cell viability (Caco-2 [9]; 100 nM): 100%
- cell viability (Caco-2 [9]; 1000 nM): 96.5%
- cell viability (Caco-2 [9]; 10000 nM): 106%
- cell viability (Vero E6 [10]; 1 nM): 92.7%
- cell viability (Vero E6 [10]; 10 nM): 98.9%
- cell viability (Vero E6 [10]; 100 nM): 93.6%
- cell viability (Vero E6 [10]; 1000 nM): 96.5%
- cell viability (Vero E6 [10]; 10000 nM): 101%
- cell viability (HepG2 [11]; 1 nM): 96.2%
- cell viability (HepG2 [11]; 10 nM): 96%
- cell viability (HepG2 [11]; 100 nM): 97.7%
- cell viability (HepG2 [11]; 1000 nM): 106%
- cell viability (HepG2 [11]; 10000 nM): 112%
- cell viability (U2OS [12]; 1 nM): 98.7%
- cell viability (U2OS [12]; 10 nM): 95.2%
- cell viability (U2OS [12]; 100 nM): 103%
- cell viability (U2OS [12]; 1000 nM): 95%
- cell viability (U2OS [12]; 10000 nM): 99.2%
- cell viability (Calu-3 [13]; 1 nM): 106%
- cell viability (Calu-3 [13]; 10 nM): 98%
- cell viability (Calu-3 [13]; 100 nM): 106%
- cell viability (Calu-3 [13]; 1000 nM): 86.8%
- cell viability (Calu-3 [13]; 10000 nM): 95.4%
